{
  "source": "patent US9408924B2",
  "about": "“Bioconjugates of cyanine dyes” (LI-COR, INC., priority 2010, dated 2016)",
  "key": {"[1]": {"assay": "Absorption and emission of the dye", "type": "physicochemical", "description": "Compound 9 (80 mg), 3-(2-carboxyethyl)phenylboronic acid (40 mg), and cesium carbonate (20 mg) were stirred into water (20 mL) under nitrogen at room temperature. Tetrakis(triphenylphosphine)palladium (0) (10 mg) were added to the reaction mixture. The mixture was refluxed for 4 h, and the solvent and volatile compounds then were evaporated under vacuum. The crude product was purified by flash chromatography on silica 60, 200-400 mesh, eluting with a 20/80 acetonitrile/water mixture. The purified compound 56 had λMeOH=680 nm, λPBS=672 nm, ε=160,000.\nFluorescence determinations were made at a fixed antibody concentration of 10 μg/mL in physiological buffer using dye-labeled goat anti-rabbit (GAR) conjugates prepared at LI-COR (FIGS. 13A-B and 14). A dye-labeled lactalbumin conjugate was also tested (FIG. 15).\n20's absorbance and emission maximum is at 676 nm in aqueous solution and at 693 nm in methanol."}, "U87GM cells": {"tested_on": "U87GM cells", "assay": "Plate-based evaluation of cell binding (on-cell Western)", "conditions": "<0.5 μM; in comparison to a specific targeted probe", "description": "Compound 10/RGD and 10/EGF were prepared to be used in conjunction with 10 to estimate relative non-specific binding of the dye relative to a labeled targeted agent. The on-cell Western was the format used and imaged on the Odyssey Sa.\nIn a plate-based evaluation of 10/RGD on U87GM cells, 10 was added to assess level of cell binding (FIG. 27)."}, "[2]": {"assay": "In vivo clearance study of carboxylate 10", "set-up": "species or system Nude mice", "description": "Nude mice were used for the clearance study with the carboxylate and for the targeted agent evaluation. A dose of 2 nmol 10 was administered intravenously (IV) via the tail vein of the mouse and serial imaged over the next 48 h with the Pearl Impulse imaging system. Excised organs were evaluated to assess organs with the highest retention."}, "A431 subcutaneous tumors": {"tested_on": "A431 subcutaneous tumors", "assay": "In vivo dose testing of 10/EGF", "set-up": "species or system nude mice", "conditions": "excised organs 48 h post injection", "description": "Testing for optimal dose in nude mice bearing A431 subcutaneous tumors was done. Four doses were tested: 0.5, 1, 2, and 3 nmoles. Two mice were used per treatment dosage. A431 tumor cells were implanted on the right hip and allowed to reach approximately 0.5 cm. FIG. 31 presents dorsal views of all animals under a common LUT."}, "[3]": {"assay": "Photostability comparison on nitrocellulose membrane", "type": "physicochemical", "conditions": "dye-labeled GAR on nitrocellulose; repeated Odyssey scans; normalized to time zero", "description": "Test samples were prepared by spotting equimolar amounts of dye (i.e., goat anti-rabbit (GAR) secondary antibodies labeled with the appropriate dye) onto nitrocellulose membrane. The membrane was then scanned repeatedly on an Odyssey Infrared Imager, and the signal intensity was normalized to the control signal at time zero (FIG. 19A-B)."}, "[4]": {"tested_on": "U87 tumor cells (integrins)", "assay": "In vivo optical imaging with 10-labeled cyclo(RGDfK) probe", "set-up": "species or system Mice", "description": "The suitability of compound 10 for in vivo optical imaging was evaluated using an 10-labeled cyclo(Arg-Gly-Asp-D-Phe-Lys) (RGDfK) probe. This probe was specifically designed to target integrins. Integrins are cell surface heterodimeric glycoproteins important in cell adhesion and signal transduction. This receptor class is involved in tumor growth, tumor invasiveness, metastasis, tumor-induced angiogenesis, inflammation, osteoporosis, and rheumatoid arthritis.\nMice were implanted with U87 tumor cells. The animals were injected and imaged while the tumors were still extremely small. This provided a good test of how visible the tumors are over any background signal that the probe detected.\nTumors were excised, weighed, and imaged on a Pearl Imager (FIG. 3)."}},
  "data": [
    {"molecule": "CC1(C)C(/C=C/C(=C/C=C2/N(CCCS(=O)(=O)[O-])c3ccc(S(=O)(=O)[O-])cc3C2(C)C)c2cccc(CCC(=O)O)c2)=Nc2c1cc(Cl)c[n+]2CCCS(=O)(=O)[O-].[Na+].[Na+]", "note": "[Compound 10]", "values": [
      {"measurement": "Extinction Coefficient", "setting": "[1]; MeOH", "result": "170,000"},
      {"measurement": "Max. Abs.", "setting": "[1]; MeOH", "result": 680, "unit": "nm"},
      {"measurement": "Max. Emis.", "setting": "[1]; MeOH", "result": 694, "unit": "nm"},
      {"measurement": "Extinction Coefficient", "setting": "[1]; PBS", "result": "160,000"},
      {"measurement": "Max. Abs.", "setting": "[1]; PBS", "result": 672, "unit": "nm"},
      {"measurement": "Max. Emis.", "setting": "[1]; PBS", "result": 694, "unit": "nm"},
      {"measurement": "level of cell binding", "setting": "U87GM cells", "result": "low levels of cell binding"},
      {"measurement": "time of signal spike", "setting": "[2]; 2 nmol IV", "result": "about 1 hour"},
      {"measurement": "retention in the kidneys", "setting": "[2]; 2 nmol IV, 44 hr period", "result": "very little retention in the kidneys, if at all"},
      {"measurement": "route of clearance", "setting": "[2]; 2 nmol IV, 44 hr period", "result": "clears via the liver/gall bladder/intestinal tract"},
      {"measurement": "time by which total signal is dramatically reduced", "setting": "[2]; 2 nmol IV, whole-image ROI", "result": "≤ 4", "unit": "h"},
      {"measurement": "retention in excised organs", "setting": "[2]; 44 hr post injection, liver, heart, kidney, spleen, intestine, muscle, tumor", "result": "very little retention of probe"},
      {"measurement": "signal from the tumor cells", "setting": "A431 subcutaneous tumors", "result": "very little signal from the tumor cells"}
    ]},
    {"molecule": "C[Si](C)(CCC[N+](CCCS(=O)(=O)[O-])(CCCS(=O)(=O)[O-])CCCS(=O)(=O)[O-])O[Si]1(O[Si](C)(C)CCC[N+](CCCS(=O)(=O)[O-])(CCCS(=O)(=O)[O-])CCCS(=O)(=O)[O-])n2c3c4ccccc4c2N=C2N=C(N=c4c5ccccc5c(n41)=NC1=NC(=N3)c3ccccc31)c1cccc(OCCCOC(=O)NCCCCCC(=O)ON3C(=O)CCC3=O)c12.[Na+].[Na+].[Na+].[Na+]", "note": "(centres unmarked) [Compound 700DX]", "values": [
      {"measurement": "relative fluorescence on repeated scanning (photostability)", "setting": "[3]", "result": "unchanged"}
    ]},
    {"molecule": "CC1(C)C(/C=C/C(=C/C=C2\\N(CCCS(=O)(=O)[O-])c3ccc(S(=O)(=O)[O-])cc3C2(C)C)c2cccc(CCC(=O)NCCCC[C@@H]3NC(=O)[C@@H](Cc4ccccc4)NC(=O)[C@H](CC(=O)[O-])NC(=O)CNC(=O)[C@H](CCCNC(=N)N)NC3=O)c2)=Nc2c1cc(Cl)c[n+]2CCCS(=O)(=O)[O-].[Na+].[Na+].[Na+]", "note": "[Compound 21, Sodium 2-((2S,5R,8S,11S)-5-benzyl-8-(4-(3-(3-((1E,3Z,5Z)-1-(5-chloro-3,3-dimethyl-7-(3-sulfonatopropyl)-3H-pyrrolo[2,3-b]pyridin-7-ium-2-yl)-5-(3,3-dimethyl-5-sulfonato-1-(3-sulfonatopropyl)indolin-2-ylidene)penta-1,3-dien-3-yl)phenyl)propanamido)butyl)-11-(3-guanidinopropyl)-3,6,9,12,15-pentaoxo-1,4,7,10,13-pentaazacyclopentadecan-2-yl)acetate]", "values": [
      {"measurement": "clearance and background", "setting": "[4]; 1 nmol", "result": "cleared the system without an undue level of background"},
      {"measurement": "time post-injection by which tumors were visible", "setting": "[4]; 1 nmol intravenously, two tumor-bearing mice", "result": "≤ 5", "unit": "h"},
      {"measurement": "detectability of tumors", "setting": "[4]; 1 nmol, extremely small tumors (9 and 15 mg)", "result": "easily detectable"}
    ]}
  ]
}
